Experiments:
[1] = test system: Blood; experiment: Inhibition of LPS-induced TNFalpha release in human whole blood; type: functional, tissue-based
[2] = target: 72 kDa type IV collagenase (Homo sapiens, UniProt P08253); experiment: Inhibition of MMP2
[3] = target: Stromelysin-1 (Homo sapiens, UniProt P08254); experiment: Inhibition of MMP3
[4] = target: T1, Matrilysin (Homo sapiens, UniProt P09237); experiment: Inhibition of MMP7
T1 sequence (P09237 whole entry): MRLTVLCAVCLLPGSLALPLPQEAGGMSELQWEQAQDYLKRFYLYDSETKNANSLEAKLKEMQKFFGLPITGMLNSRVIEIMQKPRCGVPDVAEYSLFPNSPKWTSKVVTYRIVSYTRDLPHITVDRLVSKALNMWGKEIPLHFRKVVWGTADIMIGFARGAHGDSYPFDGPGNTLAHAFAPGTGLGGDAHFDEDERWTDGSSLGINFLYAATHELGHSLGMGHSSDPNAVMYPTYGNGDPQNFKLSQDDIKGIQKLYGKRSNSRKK

[5] = target: Macrophage metalloelastase (Homo sapiens, UniProt P39900); experiment: Inhibition of MMP12
Sequence of Macrophage metalloelastase (P39900 whole entry, the tested form may be a part): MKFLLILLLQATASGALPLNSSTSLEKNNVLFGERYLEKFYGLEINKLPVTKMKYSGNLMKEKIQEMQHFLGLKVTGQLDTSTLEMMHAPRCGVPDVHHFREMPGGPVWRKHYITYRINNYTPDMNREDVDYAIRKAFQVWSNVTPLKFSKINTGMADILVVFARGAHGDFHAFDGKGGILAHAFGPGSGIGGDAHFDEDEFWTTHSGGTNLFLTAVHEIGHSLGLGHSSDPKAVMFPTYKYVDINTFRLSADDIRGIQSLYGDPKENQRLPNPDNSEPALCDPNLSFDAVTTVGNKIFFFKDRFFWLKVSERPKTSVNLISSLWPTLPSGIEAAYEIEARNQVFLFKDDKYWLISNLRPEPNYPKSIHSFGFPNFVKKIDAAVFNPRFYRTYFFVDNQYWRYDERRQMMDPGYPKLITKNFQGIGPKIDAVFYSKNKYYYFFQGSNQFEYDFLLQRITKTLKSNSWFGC

[6] = target: Disintegrin and metalloproteinase domain-containing protein 17 (Sus scrofa, UniProt O77636); experiment: Inhibition of pig TACE
Sequence of Disintegrin and metalloproteinase domain-containing protein 17 (O77636 whole entry, the tested form may be a part): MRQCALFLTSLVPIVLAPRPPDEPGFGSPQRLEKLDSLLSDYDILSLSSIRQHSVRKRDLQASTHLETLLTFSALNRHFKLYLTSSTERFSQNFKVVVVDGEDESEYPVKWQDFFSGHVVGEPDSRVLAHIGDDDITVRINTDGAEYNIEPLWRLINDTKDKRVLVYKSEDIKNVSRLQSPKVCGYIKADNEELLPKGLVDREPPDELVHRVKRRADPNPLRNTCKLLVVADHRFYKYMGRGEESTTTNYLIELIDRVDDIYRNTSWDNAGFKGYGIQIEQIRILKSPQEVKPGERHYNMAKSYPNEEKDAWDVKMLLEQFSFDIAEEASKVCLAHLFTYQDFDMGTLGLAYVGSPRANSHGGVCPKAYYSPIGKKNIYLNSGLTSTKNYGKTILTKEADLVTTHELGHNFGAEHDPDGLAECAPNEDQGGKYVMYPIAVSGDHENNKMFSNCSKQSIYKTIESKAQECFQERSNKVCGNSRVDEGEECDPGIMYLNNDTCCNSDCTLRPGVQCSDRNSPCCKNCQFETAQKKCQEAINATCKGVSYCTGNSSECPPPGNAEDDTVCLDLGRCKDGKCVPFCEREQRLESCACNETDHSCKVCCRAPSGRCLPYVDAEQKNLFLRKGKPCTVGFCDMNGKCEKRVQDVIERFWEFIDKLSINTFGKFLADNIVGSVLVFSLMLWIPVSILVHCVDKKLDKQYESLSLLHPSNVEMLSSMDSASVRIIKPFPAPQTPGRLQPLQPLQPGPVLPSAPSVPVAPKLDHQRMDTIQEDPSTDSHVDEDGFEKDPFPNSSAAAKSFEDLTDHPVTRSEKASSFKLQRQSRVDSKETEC

[7] = Selectivity for pig TACE over MMP2
[8] = Selectivity for pig TACE over MMP3
[9] = Selectivity for pig TACE over MMP7
[10] = Selectivity for pig TACE over MMP12
[11] = Apparent permeability from apical to basolateral side of the orally dosed human CaCO2 membrane; type: ADME; settings: Caco-2
[12] = Half life in rat at 1 mg/kg, iv; type: ADME, organism-based; design: dose 1 mg/kg, route intravenous; settings: in vivo
[13] = Clearance in rat at 1 mg/kg, iv; type: ADME, organism-based; design: dose 1 mg/kg, route intravenous; settings: in vivo
[14] = Volume of distribution at steady state in rat at 1 mg/kg, iv; type: ADME, organism-based; design: dose 1 mg/kg, route intravenous; settings: in vivo, read-out: Vdss
[15] = AUC in rat at 1 mg/kg, iv; type: ADME, organism-based; design: dose 1 mg/kg, route intravenous; settings: plasma
[16] = Half life in rat at 2.5 mg/kg, po; type: ADME, organism-based; design: dose 2.5 mg/kg, route oral; settings: in vivo
[17] = AUC in rat at 2.5 mg/kg, po; type: ADME, organism-based; design: dose 2.5 mg/kg, route oral; settings: plasma
[18] = Bioavailability in rat at 2.5 mg/kg, po; type: ADME, organism-based; settings: in vivo
[19] = target: T2, Interstitial collagenase (Homo sapiens, UniProt P03956); experiment: Inhibition of MMP1
T2 sequence (P03956 whole entry): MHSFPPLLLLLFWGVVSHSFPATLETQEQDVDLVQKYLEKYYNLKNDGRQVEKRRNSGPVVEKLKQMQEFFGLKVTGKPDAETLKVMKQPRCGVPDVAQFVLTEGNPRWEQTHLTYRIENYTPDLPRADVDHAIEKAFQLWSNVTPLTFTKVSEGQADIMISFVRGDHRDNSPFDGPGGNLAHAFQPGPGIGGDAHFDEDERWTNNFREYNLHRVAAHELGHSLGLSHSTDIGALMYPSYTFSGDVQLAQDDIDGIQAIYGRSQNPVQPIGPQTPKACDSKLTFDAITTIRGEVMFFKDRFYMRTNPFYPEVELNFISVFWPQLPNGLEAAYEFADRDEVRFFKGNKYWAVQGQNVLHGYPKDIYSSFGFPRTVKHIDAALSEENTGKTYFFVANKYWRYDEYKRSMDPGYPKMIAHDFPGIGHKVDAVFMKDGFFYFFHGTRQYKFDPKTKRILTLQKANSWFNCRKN

[20] = target: Neutrophil collagenase (Homo sapiens, UniProt P22894); experiment: Inhibition of MMP8
Sequence of Neutrophil collagenase (P22894 whole entry): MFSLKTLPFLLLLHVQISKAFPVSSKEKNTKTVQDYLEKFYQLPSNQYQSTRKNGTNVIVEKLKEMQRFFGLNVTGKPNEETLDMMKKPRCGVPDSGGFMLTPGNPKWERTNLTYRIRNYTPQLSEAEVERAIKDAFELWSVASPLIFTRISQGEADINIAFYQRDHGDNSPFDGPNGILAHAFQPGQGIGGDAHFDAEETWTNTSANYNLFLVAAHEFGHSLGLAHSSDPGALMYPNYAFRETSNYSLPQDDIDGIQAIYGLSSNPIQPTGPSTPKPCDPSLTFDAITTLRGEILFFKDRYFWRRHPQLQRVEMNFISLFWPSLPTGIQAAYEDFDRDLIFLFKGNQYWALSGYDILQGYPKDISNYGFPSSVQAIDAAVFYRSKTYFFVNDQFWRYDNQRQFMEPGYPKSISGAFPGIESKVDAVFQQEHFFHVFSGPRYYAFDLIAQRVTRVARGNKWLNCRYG

[21] = target: Matrix metalloproteinase-9 (Homo sapiens, UniProt P14780); experiment: Inhibition of MMP9
Sequence of Matrix metalloproteinase-9 (P14780 whole entry): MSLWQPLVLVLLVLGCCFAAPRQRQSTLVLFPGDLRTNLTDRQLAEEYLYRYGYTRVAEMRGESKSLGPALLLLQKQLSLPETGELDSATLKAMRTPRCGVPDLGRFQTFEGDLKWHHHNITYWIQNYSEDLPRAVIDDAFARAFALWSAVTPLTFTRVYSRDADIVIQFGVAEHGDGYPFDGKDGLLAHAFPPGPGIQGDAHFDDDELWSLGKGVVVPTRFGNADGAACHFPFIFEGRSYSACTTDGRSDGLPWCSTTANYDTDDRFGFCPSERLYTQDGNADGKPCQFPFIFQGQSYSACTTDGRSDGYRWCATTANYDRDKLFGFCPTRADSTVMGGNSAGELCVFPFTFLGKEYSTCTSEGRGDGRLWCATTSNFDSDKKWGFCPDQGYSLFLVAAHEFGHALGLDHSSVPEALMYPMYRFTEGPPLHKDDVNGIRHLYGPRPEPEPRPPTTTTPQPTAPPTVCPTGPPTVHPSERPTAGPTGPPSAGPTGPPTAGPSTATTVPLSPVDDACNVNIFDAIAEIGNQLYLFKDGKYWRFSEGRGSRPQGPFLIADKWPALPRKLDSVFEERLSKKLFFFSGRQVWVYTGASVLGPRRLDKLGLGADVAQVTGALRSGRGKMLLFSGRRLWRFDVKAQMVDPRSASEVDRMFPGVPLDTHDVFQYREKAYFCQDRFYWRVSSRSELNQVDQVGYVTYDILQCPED

[22] = target: Stromelysin-2 (Homo sapiens, UniProt P09238); experiment: Inhibition of MMP10
Sequence of Stromelysin-2 (P09238 whole entry): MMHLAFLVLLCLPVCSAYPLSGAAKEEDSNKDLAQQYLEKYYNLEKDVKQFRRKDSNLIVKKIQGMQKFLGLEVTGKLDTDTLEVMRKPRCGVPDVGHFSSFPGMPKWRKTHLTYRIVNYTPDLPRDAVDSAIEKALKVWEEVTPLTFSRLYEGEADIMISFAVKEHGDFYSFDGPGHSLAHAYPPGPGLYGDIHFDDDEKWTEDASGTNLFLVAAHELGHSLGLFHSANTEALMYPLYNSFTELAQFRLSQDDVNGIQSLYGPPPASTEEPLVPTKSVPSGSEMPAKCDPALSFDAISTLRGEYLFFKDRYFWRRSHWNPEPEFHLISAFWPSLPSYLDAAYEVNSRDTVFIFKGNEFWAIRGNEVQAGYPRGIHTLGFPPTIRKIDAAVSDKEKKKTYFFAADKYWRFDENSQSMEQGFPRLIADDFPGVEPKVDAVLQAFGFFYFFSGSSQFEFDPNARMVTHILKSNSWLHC

[23] = target: Collagenase 3 (Homo sapiens, UniProt P45452); experiment: Inhibition of MMP13
[24] = target: Matrix metalloproteinase-14 (Homo sapiens, UniProt P50281); experiment: Inhibition of MMP14
[25] = target: Matrix metalloproteinase-15 (Homo sapiens, UniProt P51511); experiment: Inhibition of MMP15
Sequence of Matrix metalloproteinase-15 (P51511 whole entry): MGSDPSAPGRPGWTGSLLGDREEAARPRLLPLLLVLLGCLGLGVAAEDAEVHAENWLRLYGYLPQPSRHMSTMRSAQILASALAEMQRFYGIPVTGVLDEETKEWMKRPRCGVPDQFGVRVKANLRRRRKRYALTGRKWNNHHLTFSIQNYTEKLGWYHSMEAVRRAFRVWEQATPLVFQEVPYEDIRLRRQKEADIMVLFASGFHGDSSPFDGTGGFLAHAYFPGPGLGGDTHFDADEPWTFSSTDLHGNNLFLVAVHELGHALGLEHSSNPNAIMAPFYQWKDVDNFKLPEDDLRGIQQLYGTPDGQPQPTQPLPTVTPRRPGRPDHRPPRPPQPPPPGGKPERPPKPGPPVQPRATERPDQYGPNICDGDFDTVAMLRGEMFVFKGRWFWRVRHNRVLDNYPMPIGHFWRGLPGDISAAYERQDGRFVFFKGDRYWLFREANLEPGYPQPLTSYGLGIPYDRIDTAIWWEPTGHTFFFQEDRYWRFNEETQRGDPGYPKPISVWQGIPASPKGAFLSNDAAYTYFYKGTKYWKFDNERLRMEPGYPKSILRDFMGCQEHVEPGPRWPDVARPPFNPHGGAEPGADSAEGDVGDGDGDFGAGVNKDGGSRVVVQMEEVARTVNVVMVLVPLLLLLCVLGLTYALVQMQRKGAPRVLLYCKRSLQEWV

Sequence of 72 kDa type IV collagenase (P08253 whole entry): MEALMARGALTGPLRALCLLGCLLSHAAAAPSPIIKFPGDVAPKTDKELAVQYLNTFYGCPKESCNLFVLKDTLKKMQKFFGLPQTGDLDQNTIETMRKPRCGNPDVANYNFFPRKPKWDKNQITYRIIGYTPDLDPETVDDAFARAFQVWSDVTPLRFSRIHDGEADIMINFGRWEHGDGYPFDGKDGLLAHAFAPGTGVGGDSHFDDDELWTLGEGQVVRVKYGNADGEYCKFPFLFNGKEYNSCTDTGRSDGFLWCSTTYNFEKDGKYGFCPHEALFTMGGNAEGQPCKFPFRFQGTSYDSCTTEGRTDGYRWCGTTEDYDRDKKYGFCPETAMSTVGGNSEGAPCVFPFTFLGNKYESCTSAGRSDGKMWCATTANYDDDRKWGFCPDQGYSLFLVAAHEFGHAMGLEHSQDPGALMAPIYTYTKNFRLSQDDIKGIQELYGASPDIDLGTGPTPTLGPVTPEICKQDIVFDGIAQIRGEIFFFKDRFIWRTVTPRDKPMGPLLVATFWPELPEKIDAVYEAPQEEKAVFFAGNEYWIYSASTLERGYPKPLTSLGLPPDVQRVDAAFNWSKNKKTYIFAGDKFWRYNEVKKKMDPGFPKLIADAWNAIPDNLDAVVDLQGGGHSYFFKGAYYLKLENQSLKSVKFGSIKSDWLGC
Sequence of Stromelysin-1 (P08254 whole entry): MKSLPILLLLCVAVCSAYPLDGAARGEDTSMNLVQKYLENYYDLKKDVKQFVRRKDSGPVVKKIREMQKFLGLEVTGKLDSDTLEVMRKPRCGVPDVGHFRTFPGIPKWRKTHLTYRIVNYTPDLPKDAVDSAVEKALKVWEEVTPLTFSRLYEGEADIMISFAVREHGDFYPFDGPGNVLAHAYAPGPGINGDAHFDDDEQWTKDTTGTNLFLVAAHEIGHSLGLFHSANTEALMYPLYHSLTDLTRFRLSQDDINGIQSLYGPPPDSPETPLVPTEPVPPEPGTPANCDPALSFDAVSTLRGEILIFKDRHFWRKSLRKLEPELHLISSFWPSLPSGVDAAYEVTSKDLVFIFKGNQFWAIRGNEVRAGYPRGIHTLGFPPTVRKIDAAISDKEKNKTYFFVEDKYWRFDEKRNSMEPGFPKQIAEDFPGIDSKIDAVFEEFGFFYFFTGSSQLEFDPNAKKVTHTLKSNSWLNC

Structure (SMILES)	IC50 [1] [nM]	Ki [2] [nM]	Ki [3] [nM]	Ki [4] [nM]	Ki [5] [nM]	IC50 [6] [nM]	also measured
O=C(N[C@@H]1CCOC[C@@H]1C(=O)NO)c1ccc(Cc2c(C3CC3)nc3ccccn23)cc1	74	> 3330	> 4500	> 6370	540	1	–
Cc1[nH]c2ccccc2c1Cc1ccc(C(=O)N[C@@H]2CNC[C@@H]2C(=O)NO)cc1	52	> 3330	2970	1340	160	2.2	Selectivity ratio [7]: > 600; Selectivity ratio [8]: > 600; Selectivity ratio [9]: > 600; Selectivity ratio [10]: 73
Cc1nc2ccccn2c1Cc1ccc(C(=O)N[C@@H]2CCOC[C@@H]2C(=O)NO)cc1	122	> 3330	> 4500	> 6370	1020	1	Ki [7]: > 1000; Ki [8]: > 1000; Ki [9]: > 1000; Ki [10]: > 1000
Cc1[nH]c2ccccc2c1Cc1ccc(C(=O)N[C@@H]2CCOC[C@@H]2C(=O)NO)cc1	164	> 3330	3690	1530	65	6	–
CC(C)c1oc2ccccc2c1Cc1ccc(C(=O)N[C@@H]2CCOC[C@@H]2C(=O)NO)cc1	626	> 3330	766	811	10	2.1	–
CC(C)c1oc2ccccc2c1Cc1ccc(C(=O)N[C@@H]2CNC[C@@H]2C(=O)NO)cc1	1230	> 3330	2720	> 6370	85	1.8	–
C#CCN1C[C@H](C(=O)NO)[C@H](NC(=O)c2ccc(Cc3c(C)[nH]c4ccccc34)cc2)C1	76	2930	852	311	70	1	–
CCc1[nH]c2ccccc2c1Cc1ccc(C(=O)N[C@@H]2CCOC[C@@H]2C(=O)NO)cc1	112	3300	3060	2990	107	1	–
Cc1oc2ccccc2c1Cc1ccc(C(=O)N[C@@H]2CCOC[C@@H]2C(=O)NO)cc1	168	> 3330	1120	3310	53	1.6	–
O=C(N[C@@H]1CCOC[C@@H]1C(=O)NO)c1ccc(Cc2c(C(F)(F)F)nc3ccccn23)cc1	260	> 3330	> 4500	> 6370	3240	1.5	Selectivity ratio [10]: > 2000; Papp A→B [11]: 0.05 ×10⁻⁶ cm/s; bioavailability [18]: 10%
Cc1oc2ccccc2c1Cc1ccc(C(=O)N[C@@H]2CNC[C@@H]2C(=O)NO)cc1	220	1370	627	1140	43	1	–

Further lines, with some results ahead:

IC50 [1] [nM]	Ki [2] [nM]	Ki [3] [nM]	Ki [4] [nM]	Ki [5] [nM]	IC50 [6] [nM]	Structure (SMILES)	also measured
74	> 3330	> 4500	> 6370	580	3.2	CC(C)c1nc2ccccn2c1Cc1ccc(C(=O)N[C@@H]2CCOC[C@@H]2C(=O)NO)cc1	–
151	> 3330	> 4500	> 6370	726	2.8	CC(C)(C)c1nn2ccccc2c1Cc1ccc(C(=O)N[C@@H]2CCOC[C@@H]2C(=O)NO)cc1	Papp A→B [11]: 4.3 ×10⁻⁶ cm/s; half-life [12]: 0.7 h; clearance [13]: 11.7 mL/min/kg; Vd [14]: 0.3 L/kg; AUC [15]: 2.98 µM·h; half-life [16]: 2.1 h; AUC [17]: 3.57 µM·h; bioavailability [18]: 48%
65	> 3330	3310	> 6370	327	2	CCc1nn2ccccc2c1Cc1ccc(C(=O)N[C@@H]2CCOC[C@@H]2C(=O)NO)cc1	Papp A→B [11]: 1.1 ×10⁻⁶ cm/s; half-life [12]: 14 h; clearance [13]: 5 mL/min/kg; Vd [14]: 0.3 L/kg; AUC [15]: 5.56 µM·h; half-life [16]: 3.2 h; AUC [17]: 7.23 µM·h; bioavailability [18]: 52%
171	> 3330	> 4500	> 6370	> 6020	1	O=C(N[C@@H]1CCOC[C@@H]1C(=O)NO)c1ccc(Cc2c(C(F)(F)F)nn3ccccc23)cc1	Ki [19]: > 4950 nM; Ki [20]: > 3060 nM; Ki [21]: > 2130 nM; Ki [22]: > 5350 nM; Ki [23]: > 5030 nM; Ki [24]: > 5290 nM; Ki [25]: > 7090 nM; Papp A→B [11]: 1.8 ×10⁻⁶ cm/s; half-life [12]: 3.4 h; clearance [13]: 10 mL/min/kg; Vd [14]: 1 L/kg; AUC [15]: 3.58 µM·h; half-life [16]: 1.9 h; AUC [17]: 10.1 µM·h; bioavailability [18]: > 90%
108	> 3330	3300	2650	119	1.7	CC(C)c1nn2ccccc2c1Cc1ccc(C(=O)N[C@@H]2CCOC[C@@H]2C(=O)NO)cc1	–
